Laboratory results reported in patent US7550478B2, “Tyrosine kinase inhibitors” (Merck & Co. Inc., priority 2006, dated 2009).

Target: T1, human c-Met (Homo sapiens, UniProt P08581)
T1 construct: Recombinant GST-tagged cytosolic domains of human c-Met; 6xHis; made in house; host or cells: Sf9 or Sf21 insect cells (baculovirus, Pharmingen vector pGcGHLT-A, B or C)
Test: In vitro kinase assay (homogeneous time-resolved tyrosine kinase assay, HTRF) for c-Met
Assay type: biochemical
Conditions: recombinant GST-tagged cytosolic domain of c-Met, 0.2 nM c-Met, 50 μM MgATP, 80 min at room temperature
Description: Recombinant GST-tagged cytosolic domains of human c-Met and other receptor tyrosine kinases including mouse c-Met, human Ron, KDR, IGFR, EGFR, FGFR, Mer, TrkA and Tie2 are used to determine whether the compounds of the instant invention modulate the enzymatic activities of these kinases.
Soluble recombinant GST-tagged cytosolic domains of c-Met and other receptor tyrosine kinases are expressed in a baculovirus system (Pharmingen) according to a protocol recommended by the manufacturer. The c-DNA encoding each cytosolic domain is subcloned into a baculovirus expression vector (pGcGHLT-A, B or C, Pharmingen) containing an in frame 6× histidine tag and a GST tag. […] The protein concentrations of the fusion proteins are determined using Coomassie Plus Protein Assay (Pierce) with BSA as standard.
The kinase activities of c-Met and other kinases are measured using a modified version of the homogeneous time-resolved tyrosine kinase assay described by Park et al. (1999, Anal. Biochem. 269:94-104).
The procedure for determining the potency of a compound to inhibit c-Met kinase comprises the following steps: • 1. […] Read HTRF signals on a Victor reader (PerkinElmer) in HTRF mode after 60 min. • 6. IC50 is determined by fitting the observed relationship between compound concentration and HTRF signal with a 4-parameter logistic equation. […]

T1 sequence (P08581 956-1390 limits assumed): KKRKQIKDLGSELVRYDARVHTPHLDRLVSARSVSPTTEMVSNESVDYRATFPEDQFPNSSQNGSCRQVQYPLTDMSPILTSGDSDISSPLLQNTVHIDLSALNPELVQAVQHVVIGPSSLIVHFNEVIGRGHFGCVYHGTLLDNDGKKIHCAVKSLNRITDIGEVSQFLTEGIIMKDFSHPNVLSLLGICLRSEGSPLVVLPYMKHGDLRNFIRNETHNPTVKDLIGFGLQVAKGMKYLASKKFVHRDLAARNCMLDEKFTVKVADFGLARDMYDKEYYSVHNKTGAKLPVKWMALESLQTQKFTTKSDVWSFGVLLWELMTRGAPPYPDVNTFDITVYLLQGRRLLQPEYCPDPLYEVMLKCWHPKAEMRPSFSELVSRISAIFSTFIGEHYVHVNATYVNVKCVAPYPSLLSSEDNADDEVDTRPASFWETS

With `O=c1c2cc(-c3ccccc3)cnc2ccc2cccc(Br)c12` [Compound 3, 6-bromo-3-phenyl-5H-benzo[4,5]cyclohepta[1,2-b]pyridin-5-one] the IC50 was at most 50 µM.
